Consider 23 compounds from patent US11453677B2 (priority 2016, dated 2022).

Assay in all cases: cells
What all share (assay type): cell-based

Test [1] has as its system influenza A virus minigenome (PB2, PB1, PA, NP) RNP_Alaska in 293T cells. The settings on record: HEK-293T, 48 h, read-out: RNP_Alaska EC50.
For test [2], the system named is influenza A virus minigenome (PB2, PB1, PA, NP) RNP_CAL in 293T cells. The conditions noted are these: HEK-293T, 48 h, read-out: RNP_CAL_EC50.
Test [3] deals with influenza virus minigenome (PB2, PB1, PA, NP) RNP_Hubei in 293T cells. The conditions noted are these: unidentified influenza virus, HEK-293T, 48 h, read-out: RNP_Hubei EC50.

`O=c1cnn2c(c1O)-c1nccn1C[C@@H]2[C@@H](c1ccc(F)cc1)c1ccc(F)c(F)c1` [Example 25, (S)-6-((S)-(3,4-difluorophenyl)(4-fluorophenyl)methyl)-11-hydroxy-5H-imidazo[2′,1′:3,4]pyrazino[1,2-b]pyridazin-10(6H)-one]: the EC50 in test [1] is 0.062 µM; in test [2] it was 0.056 µM; in test [3] it was 0.1 µM.
On the same counts, the results for `O=c1cnn2c(c1O)-c1nccn1C[C@@H]2[C@H](c1ccc(F)cc1)c1cccc(F)c1` [Example 26, (S)-6-((R)-(3-fluorophenyl)(4-fluorophenyl)methyl)-11-hydroxy-5,6-dihydro-10H-imidazo[2′,1′:3,4]pyrazino[1,2-b]pyridazin-10-one] are 0.027 µM, 0.038 µM and 0.051 µM.
On the same counts, the results for `Cc1cc(F)ccc1[C@H](c1ccc(F)cc1)[C@H]1Cn2ccnc2-c2c(O)c(=O)cnn21` [Example 27, (S)-6-((S)-(4-fluoro-2-methylphenyl)(4-fluorophenyl)methyl)-11-hydroxy-5,6-dihydro-10H-imidazo[2′,1′:3,4]pyrazino[1,2-b]pyridazin-10-one] are 0.05 µM, 0.05 µM and 0.027 µM.
With `CSc1cccc([C@H](c2ccc(F)cc2)[C@H]2Cn3ccnc3-c3c(O)c(=O)cnn32)c1` [Example 28, (S)-6-((S)-(4-fluorophenyl)(3-(methylthio)phenyl)methyl)-11-hydroxy-5,6-dihydro-10H-imidazo[2′,1′:3,4]pyrazino[1,2-b]pyridazin-10-one], the EC50 in test [1] was 0.072 µM; in test [2] it was 0.081 µM; in test [3], 0.078 µM.
On to `O=c1cnn2c(c1O)-c1nccn1C[C@@H]2[C@@H](c1ccc(F)cc1)c1ccccc1Cl` [Example 29, (S)-6-((S)-(2-chlorophenyl)(4-fluorophenyl)methyl)-11-hydroxy-5,6-dihydro-10H-imidazo[2′,1′:3,4]pyrazino[1,2-b]pyridazin-10-one], for which the values for the EC50 in test [1], in test [2] and in test [3] were 0.07 µM, 0.072 µM and 0.058 µM, respectively.
On the same counts, the results for `O=c1cnn2c(c1O)-c1nccn1C[C@@H]2[C@@H](c1ccc(F)cc1)c1cccc(Cl)c1` [Example 31, (S)-6-((S)-(3-chlorophenyl)(4-fluorophenyl)methyl)-11-hydroxy-5,6-dihydro-10H-imidazo[2′,1′:3,4]pyrazino[1,2-b]pyridazin-10-one] are 0.034 µM, 0.037 µM and 0.064 µM.
On the same counts, the results for `O=c1cnn2c(c1O)-c1nccn1C[C@@H]2[C@@H](c1ccc(F)cc1)c1ccc(C(F)(F)F)cc1` [Example 32, (S)-6-((R)-(4-fluorophenyl)(4-(trifluoromethyl)phenyl)methyl)-11-hydroxy-5,6-dihydro-10H-imidazo[2′,1′:3,4]pyrazino[1,2-b]pyridazin-10-one] are 0.28 µM, 0.25 µM and 0.72 µM.
The corresponding values for `O=c1cnn2c(c1O)-c1nccn1C[C@@H]2[C@@H](c1ccc(F)cc1)c1ccc(Cl)cc1` [Example 33, (S)-6-((S)-(4-chlorophenyl)(4-fluorophenyl)methyl)-11-hydroxy-5,6-dihydro-10H-imidazo[2′,1′:3,4]pyrazino[1,2-b]pyridazin-10-one] are 0.087 µM, 0.11 µM and 0.27 µM.
As to `O=c1cnn2c(c1O)-c1nccn1C[C@@H]2[C@@H](c1ccc(F)cc1)c1cc(F)cc(F)c1` [Example 34, (S)-6-((S)-(3,5-difluorophenyl)(4-fluorophenyl)methyl)-11-hydroxy-5H-imidazo[2′,1′:3,4]pyrazino[1,2-b]pyridazin-10(6H)-one], the EC50 in test [1] came to 0.033 µM; in test [2] it was 0.025 µM; in test [3], 0.034 µM.
On the same counts, the results for `Cc1ccccc1[C@H](c1ccc(F)cc1Br)[C@H]1Cn2ccnc2-c2c(O)c(=O)cnn21` [Example 35, (S)-6-((R)-(2-bromo-4-fluorophenyl)(o-tolyl)methyl)-11-hydroxy-5,6-dihydro-10H-imidazo[2′,1′:3,4]pyrazino[1,2-b]pyridazin-10-one] are 0.098 µM, 0.05 µM and 0.11 µM.
Consider `O=c1cnn2c(c1O)-c1nccn1C[C@@H]2[C@H](c1cccc(F)c1)c1ccc(F)cc1Br` [Example 36, (S)-6-((R)-(2-bromo-4-fluorophenyl)(3-fluorophenyl)methyl)-11-hydroxy-5,6-dihydro-10H-imidazo[2′,1′:3,4]pyrazino[1,2-b]pyridazin-10-one], for which the EC50 in test [1] was found to be 0.021 µM; in test [2] it was 0.027 µM; in test [3], 0.063 µM.
Take `Cc1cccc([C@H](c2ccc(F)cc2)[C@H]2Cn3ccnc3-c3c(O)c(=O)cnn32)c1` [Example 38, (S)-6-((S)-(4-fluorophenyl)(m-tolyl)methyl)-11-hydroxy-5,6-dihydro-10H-imidazo[2′,1′:3,4]pyrazino[1,2-b]pyridazin-10-one]: the EC50 in test [1] amounted to 0.043 µM; in test [2], 0.049 µM; in test [3], 0.097 µM.
The corresponding values for `O=c1cnn2c(c1O)-c1nccn1C[C@@H]2[C@H](c1ccc(F)cc1)c1ccc(F)cc1Br` [Example 39, (S)-6-((R)-(2-bromo-4-fluorophenyl)(4-fluorophenyl)methyl)-11-hydroxy-5,6-dihydro-10H-imidazo[2′,1′:3,4]pyrazino[1,2-b]pyridazin-10-one] are 0.025 µM, 0.033 µM and 0.053 µM.
The corresponding values for `Cc1ccccc1[C@H](c1ccc(F)cc1)[C@H]1Cn2ccnc2-c2c(O)c(=O)cnn21` [Example 40, (S)-6-((S)-(4-fluorophenyl)(o-tolyl)methyl)-11-hydroxy-5,6-dihydro-10H-imidazo[2′,1′:3,4]pyrazino[1,2-b]pyridazin-10-one] are 0.02 µM, 0.032 µM and 0.035 µM.
The corresponding values for `CS(=O)(=O)c1cccc([C@H](c2ccc(F)cc2)[C@H]2Cn3ccnc3-c3c(O)c(=O)cnn32)c1` [Example 42, (S)-6-((S)-(4-fluorophenyl)(3-(methylsulfonyl)phenyl)methyl)-11-hydroxy-5,6-dihydro-10H-imidazo[2′,1′:3,4]pyrazino[1,2-b]pyridazin-10-one] are 3.6 µM, 2.8 µM and 3.8 µM.
With `N#Cc1cccc([C@H](c2ccc(F)cc2)[C@H]2Cn3ccnc3-c3c(O)c(=O)cnn32)c1` [Example 43, 3-((S)-(4-fluorophenyl)((S)-11-hydroxy-10-oxo-5,6-dihydro-10H-imidazo[2′,1′:3,4]pyrazino[1,2-b]pyridazin-6-yl)methyl)benzonitrile], the values for the EC50 in test [1], in test [2] and in test [3] were 0.14 µM, 0.039 µM and 0.17 µM, respectively.
On the same counts, the results for `N#Cc1ccccc1[C@H](c1ccc(F)cc1)[C@H]1Cn2ccnc2-c2c(O)c(=O)cnn21` [Example 44, 2-((S)-(4-fluorophenyl)((S)-11-hydroxy-10-oxo-5,6-dihydro-10H-imidazo[2′,1′:3,4]pyrazino[1,2-b]pyridazin-6-yl)methyl)benzonitrile] are 0.55 µM, 0.3 µM and 0.31 µM.
On the same counts, the results for `N#Cc1ccc([C@H](c2ccc(F)cc2)[C@H]2Cn3ccnc3-c3c(O)c(=O)cnn32)cc1` [Example 45, 4-((R)-(4-fluorophenyl)((S)-11-hydroxy-10-oxo-5,6-dihydro-10H-imidazo[2′,1′:3,4]pyrazino[1,2-b]pyridazin-6-yl)methyl)benzonitrile] are 0.076 µM, 0.042 µM and 0.16 µM.
The corresponding values for `N#Cc1cccc([C@H](c2cccc(F)c2)[C@H]2Cn3ccnc3-c3c(O)c(=O)cnn32)c1` [Example 46, 3-((R)-(3-fluorophenyl)((S)-11-hydroxy-10-oxo-5,6-dihydro-10H-imidazo[2′,1′:3,4]pyrazino[1,2-b]pyridazin-6-yl)methyl)benzonitrile] are 0.15 µM, 0.064 µM and 0.19 µM.
For the compound `O=c1cnn2c(c1O)-c1nc(Br)c(Br)n1C[C@@H]2C(c1ccc(F)cc1)c1ccc(F)cc1` [Example 48, (S)-6-(bis(4-fluorophenyl)methyl)-2,3-dibromo-11-hydroxy-5,6-dihydro-10H-imidazo[2′,1′:3,4]pyrazino[1,2-b]pyridazin-10-one], the EC50 amounted to 5 µM in test [1], 4.3 µM in test [2] and 12 µM in test [3].
On the same counts, the results for `N#Cc1cnc2n1C[C@H](C(c1ccc(F)cc1)c1ccc(F)cc1)n1ncc(=O)c(O)c1-2` [Example 49, (S)-6-(bis(4-fluorophenyl)methyl)-11-hydroxy-10-oxo-5,6-dihydro-10H-imidazo[2′,1′:3,4]pyrazino[1,2-b]pyridazine-3-carbonitrile] are 0.87 µM, 0.82 µM and 0.56 µM.
On the same counts, the results for `O=c1cnn2c(c1O)-c1ncc(CO)n1C[C@@H]2C(c1ccc(F)cc1)c1ccc(F)cc1` [Example 50, (S)-6-(bis(4-fluorophenyl)methyl)-11-hydroxy-3-(hydroxymethyl)-5,6-dihydro-10H-imidazo[2′,1:3,4]pyrazino[1,2-b]pyridazin-10-one] are 0.43 µM, 0.1 µM and 0.7 µM.
On the same counts, the results for `Cc1ccccc1[C@H](c1ccc(F)cc1)[C@H]1Cn2c(CO)cnc2-c2c(O)c(=O)cnn21` [Example 51, (S)-6-((S)-(4-fluorophenyl)(o-tolyl)methyl)-11-hydroxy-3-(hydroxymethyl)-5,6-dihydro-10H-imidazo[2′,1′:3,4]pyrazino[1,2-b]pyridazin-10-one] are 0.23 µM, 0.09 µM and 0.16 µM.
